Laboratory results taken from patent US6906205B2, “Spiro and dispiro 1,2,4-trioxolane antimalarials” (Medicines for Malaria Venture MMV, priority 2002, dated 2005).
Converted amounts (≈) assume the structure as drawn. Where two headings read alike, the source gives them in different places.

Legend:
[1] = system: P. falciparum K1 strain (Thailand resistant to chloroquine); experiment: semiautomated microdilution assay, [3H]-hypoxanthine incorporation, K1 strain; format: cell-based, Plasmodium falciparum; settings: for IC50: Plasmodium falciparum, read-out: IC50 (ng/ml) K1
Protocol: (§1) Various OZ compounds were tested by the semiautomated microdilution assay against intraerythrocytic forms of Plasmodium falciparum derived from asynchronous stock cultures.
(§2) Fifty percent inhibitory concentration (IC50) were estimated by Logit regression analysis.

[2] = system: P. falciparum NF54 strain (sensitive to standard antimalarials); experiment: semiautomated microdilution assay, [3H]-hypoxanthine incorporation, NF54 strain; format: cell-based, Plasmodium falciparum; settings: for IC50: Plasmodium falciparum, read-out: IC50 (ng/ml) NF54
Protocol: as §1, §2

[3] = system: ANKA strain of P. berghei; experiment: single dose STI in vivo screen in infected mice; set-up: species or system Plasmodium berghei; settings: for Activity (%) po / Activity (%) sc / Activity (%) SSVpo: percent reduction in parasitemia day 3 post-infection, mice; for Activity (%) po / Survival (days) po: single 10 mg/kg po in 3% ethanol and 7% Tween 80; for Activity (%) sc / Survival (days) sc: single 10 mg/kg sc in 3% ethanol and 7% Tween 80; for Survival (days) po / Survival (days) sc / Survival (days) SSVpo: untreated control 5.6 ± 0.3; for Activity (%) SSVpo: single po dose in standard suspending vehicle (SSV); for Survival (days) SSVpo: single po dose in SSV
Protocol: In the single dose STI in vivo screen, Moro SPF or NMRI mice infected with the ANKA strain of P. berghei (groups of 3-5 mice) were treated on day one post-infection with trioxolanes dissolved or suspended in 3% ethanol and 7% Tween 80. […] SSV consists of 0.5% w/v CMC, 0.5% v/v benzyl alcohol, 0.4% v/v Tween 80, and 0.9% w/v sodium chloride in water. Antimalarial activity was measured by percent reduction in parasitemia on day three post-infection and survival times compared to an untreated control group. Survival to day 30 post-infection is considered to be a cure. […] Other factors influencing antimalarial activity include the stability of carbon radicals formed by β-scission subsequent to the initial electron transfer to the peroxide bond and the influence of steric effects remote from the peroxide bond on the interactions between carbon radicals and potential drug targets.

Row | SMILES | IC50 (ng/ml) K1 ([1]; K1 strain, 72 h incubation) | IC50 (ng/ml) NF54 ([2]; NF54 strain, 72 h incubation) | Activity (%) po [3] | Activity (%) sc [3] | Survival (days) po [3] | Survival (days) sc [3] | IC50 ([1]; K1 strain, 72 h incubation) [ng/mL] | IC50 ([2]; NF54 strain, 72 h incubation) [ng/mL] | IC50 ([1]; K1, 72 h) [ng/mL] | IC50 ([2]; NF54, 72 h) [ng/mL] | Activity (%) SSVpo [3] [%] | Survival (days) SSVpo [3] [days]
1 | O=C1CC2CC(C1)CC1(C2)OOC2(O1)C1CC3CC(C1)CC2C3 (centres unmarked) [OZ13] | 0.40 ng/mL (≈ 1.26 nM) | 0.50 ng/mL (≈ 1.57 nM) | 56% | 99.7% | 6.7 days | 9.7 days |  |  |  |  |  | 
2 | O=C1CCC2(CCO1)OOC1(O2)C2CC3CC(C2)CC1C3 (centres unmarked) [OZ17] |  |  | 0% | 18% | 5.3 days | 6.3 days | 85 (≈ 289 nM) | > 100 |  |  |  | 
3 | OC1CCC2(CC1)OOC1(O2)C2CC3CC(C2)CC1C3 (centres unmarked) [OZ32] |  |  | 79% | 91% | 6.7 days | 8.7 days |  |  | 0.25 (≈ 0.892 nM) | 0.51 (≈ 1.82 nM) | 93 | 7.0
4 | c1ccc(C2(c3ccccc3)CCC3(CC2)OOC2(O3)C3CC4CC(C3)CC2C4)cc1 (centres unmarked) [OZ34] | 42 ng/mL (≈ 101 nM) | 60 ng/mL (≈ 144 nM) | 0/NA/0% | 0/NA/0% | 5.3 days | 5.7 days |  |  |  |  |  | 
5 | O=C1c2ccccc2C(=O)N1N=C1CCC2(CC1)OOC1(O2)C2CC3CC(C2)CC1C3 (centres unmarked) [OZ38] | 0.86 ng/mL (≈ 2.04 nM) | 1.3 ng/mL (≈ 3.08 nM) | 83% | 99.98% | 6.7 days | 25.3 days |  |  |  |  | 15 | 5.0
6 | Cc1ccc(S(=O)(=O)NN=C2CCC3(CC2)OOC2(O3)C3CC4CC(C3)CC2C4)cc1 (centres unmarked) [OZ39] | 1.4 ng/mL (≈ 3.14 nM) | 1.8 ng/mL (≈ 4.03 nM) | 61% | 99.3% | 6.3 days | 7.7 days |  |  |  |  |  | 
7 | CC(C)C1CCC2(CC1)OOC1(O2)C2CC3CC(C2)CC1C3 (centres unmarked) [OZ40] | 1.4 ng/mL (≈ 4.57 nM) | 2.0 ng/mL (≈ 6.53 nM) | 99% | 99.8% | 7.3 days | 9.0 days |  |  |  |  |  | 
8 | Fc1ccc(C2CCC3(CC2)OOC2(O3)C3CC4CC(C3)CC2C4)cc1 (centres unmarked) [OZ41] | 3.5 ng/mL (≈ 9.76 nM) | 4.6 ng/mL (≈ 12.8 nM) | 99.98% | 99.5% | 12.1 days | 10.7 days |  |  |  |  | 81 | 6.8
9 | c1ccc(C2(c3ccccc3)OOC3(O2)C2CC4CC(C2)CC3C4)cc1 (centres unmarked) [OZ42] | 2.3 ng/mL (≈ 6.6 nM) | 2.6 ng/mL (≈ 7.46 nM) | 68% | 92% | 6.0 days | 7.0 days |  |  |  |  |  | 
10 | Fc1ccc(C2(c3ccc(F)cc3)OOC3(O2)C2CC4CC(C2)CC3C4)cc1 (centres unmarked) [OZ44] | 2.5 ng/mL (≈ 6.5 nM) | 2.3 ng/mL (≈ 5.98 nM) | 99.3% | 99.9% | 7.0 days | 8.3 days |  |  |  |  |  | 
11 | Fc1c(F)c(F)c(C2(c3c(F)c(F)c(F)c(F)c3F)OOC3(O2)C2CC4CC(C2)CC3C4)c(F)c1F (centres unmarked) [OZ45] | 17 ng/mL (≈ 32.2 nM) | 27 ng/mL (≈ 51.1 nM) | 15% | 16% | 6.0 days | 5.0 days |  |  |  |  |  | 
12 | Clc1ccc(C2CCC3(CC2)OOC2(O3)C3CC4CC(C3)CC2C4)cc1 (centres unmarked) [OZ47] | 7.5 ng/mL (≈ 20 nM) | 7.4 ng/mL (≈ 19.7 nM) | 99.98% | 99% | 12.7 days | 8.0 days |  |  |  |  |  | 
13 | Cc1ccc(S(=O)(=O)N2CCC3(CC2)OOC2(O3)C3CC4CC(C3)CC2C4)cc1 (centres unmarked) [OZ51] | 2.5/2.5 ng/ml | 2.5/2.5 ng/ml | 89% | 100% | 7.0 days | 14 days |  |  |  |  |  | 
14 | c1ccc(CC2(Cc3ccccc3)OOC3(O2)C2CC4CC(C2)CC3C4)cc1 (centres unmarked) [OZ52] | 3.1 ng/mL (≈ 8.23 nM) | 3.0 ng/mL (≈ 7.97 nM) | 88% | 99.7% | 6.7 days | 8.0 days |  |  |  |  |  | 
15 | O=C(O)CON=C1CCC2(CC1)OOC1(O2)C2CC3CC(C2)CC1C3 (centres unmarked) [OZ54] | 32 ng/mL (≈ 91.1 nM) | 35 ng/mL (≈ 99.6 nM) | 85% | 97% | 7.0/NA/7.0 days | 7.0/NA/7.0 days |  |  |  |  |  | 
16 | O=S(=O)(c1ccc(Cl)cc1)N1CCC2(CC1)OOC1(O2)C2CC3CC(C2)CC1C3 (centres unmarked) [OZ57] | 3.1 ng/mL (≈ 7.05 nM) | 2.8 ng/mL (≈ 6.36 nM) | 32% | 98.4% | 6.0 days | 7.7 days |  |  |  |  |  | 
17 | O=C(O)CCC(=O)N1CCC2(CC1)OOC1(O2)C2CC3CC(C2)CC1C3 (centres unmarked) [OZ58] | 7.1 ng/mL (≈ 19.4 nM) | 7.2 ng/mL (≈ 19.7 nM) | 39% | 52% | 6.0 days | 6.3 days |  |  |  |  |  | 
18 | COc1ccc(S(=O)(=O)N2CCC3(CC2)OOC2(O3)C3CC4CC(C3)CC2C4)cc1 (centres unmarked) [OZ59] | 1.4 ng/mL (≈ 3.21 nM) | 1.3 ng/mL (≈ 2.98 nM) | 51% | 99.95% | 6.0 days | 10.0 days |  |  |  |  |  | 
19 | O=S(=O)(c1ccccc1)N1CCC2(CC1)OOC1(O2)C2CC3CC(C2)CC1C3 (centres unmarked) [OZ60] | 1.1 ng/mL (≈ 2.71 nM) | 1.2 ng/mL (≈ 2.96 nM) | 71% | 100% | 6.0 days | 10.3 days |  |  |  |  |  | 
20 | CCOC(=O)CC1CCC2(CC1)OOC1(O2)C2CC3CC(C2)CC1C3 (centres unmarked) [OZ61] |  |  | 91% | 96% | 7.0 days | 7.3 days | 0.52 (≈ 1.48 nM) | 0.53 (≈ 1.51 nM) |  |  |  | 
21 | c1ccc(C2CCC3(CC2)OOC2(CCC(c4ccccc4)CC2)O3)cc1 (centres unmarked) [OZ62] | 33 ng/mL (≈ 90.5 nM) | 28 ng/mL (≈ 76.8 nM) | 0/NA/0% | 0/NA/0% | 6.0 days | 5.0 days |  |  |  |  |  | 
22 | N#CC1(c2ccccc2)CCC2(CC1)OOC1(O2)C2CC3CC(C2)CC1C3 (centres unmarked) [OZ63] | 1.6/1.6 ng/ml | 1.6/1.6 ng/ml | 99.62% | 99.91% | 7.3 days | 9.3 days |  |  |  |  | 65 | 6.0
23 | CC(C)(C)COC(=O)C1CCC2(CC1)OOC1(O2)C2CC3CC(C2)CC1C3 (centres unmarked) [OZ64] | 1.5 ng/mL (≈ 3.96 nM) | 1.3 ng/mL (≈ 3.43 nM) | 95% | 98% | 7.3 days | 8.0 days |  |  |  |  |  | 
24 | O=S(=O)([O-])OC1CCC2(CC1)OOC1(O2)C2CC3CC(C2)CC1C3.[Na+] (centres unmarked) [OZ65] | 57 ng/mL | 65 ng/mL | 0% | 1% | 5.0/NA/5.0 days | 5.0/NA/5.0 days |  |  |  |  |  | 
25 | Fc1ccc(C2(c3ccc(F)cc3)OOC3(CCC(c4ccccc4)CC3)O2)cc1 (centres unmarked) [OZ66] | 44 ng/mL (≈ 108 nM) | 36 ng/mL (≈ 88.1 nM) | 0/NA/0% | 0/NA/0% | 5.3 days | 5.7 days |  |  |  |  |  | 
26 | CC(=O)OC1(c2ccc(F)cc2)CCC2(CC1)OOC1(O2)C2CC3CC(C2)CC1C3 (centres unmarked) [OZ69] | 1.6 ng/mL (≈ 3.84 nM) | 1.4 ng/mL (≈ 3.36 nM) | 56% | 40% | 6.3/NA/6.3 days | 6.3/NA/6.3 days |  |  |  |  |  | 
27 | CCOC(=O)C1CCC2(CC1)OOC1(O2)C2CC3CC(C2)CC1C3 (centres unmarked) [OZ70] |  |  | 98% | 94% | 7.7/NA/7.7 days | 7.7/NA/7.7 days | 1.2 (≈ 3.57 nM) | 1.1 (≈ 3.27 nM) |  |  |  | 
28 | CCN(CC)C(=O)C1CCC2(CC1)OOC1(O2)C2CC3CC(C2)CC1C3 (centres unmarked) [OZ73] | 6.5 ng/mL (≈ 17.9 nM) | 8.2 ng/mL (≈ 22.6 nM) | 27% | 36% | 6.0 days | 6.7 days |  |  |  |  |  | 
